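A five-concentration, 48-hour dose response in 96-well plates underlies each endpoint, interpolated linearly between surrounding concentrations. GI50 marks 50% less growth.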 The source made the active and inactive calls. Rule as the data show it: active = GI50 up to about 1.1 µM and inactive = higher.
Key:
Experiment in all cases: inhibition of tumour cell growth, NCI panel, 48 h
CAKI-1 = tested on: CAKI-1
CCRF-CEM = tested on: CCRF-CEM
COLO 205 = tested on: COLO 205
HCC 2998 = tested on: HCC 2998
HL-60 = tested on: HL-60
HOP-62 = tested on: HOP-62
IGROV-1 = tested on: IGROV-1
LOX IMVI = tested on: LOX IMVI
M14 = tested on: M14
MDA-MB-231 = tested on: MDA-MB-231
MDA-MB-435 = tested on: MDA-MB-435
NCI-H522 = tested on: NCI-H522
OVCAR-3 = tested on: OVCAR-3
OVCAR-4 = tested on: OVCAR-4
OVCAR-8 = tested on: OVCAR-8
SF-295 = tested on: SF-295
SW-620 = tested on: SW-620
T47D = tested on: T47D
U-251 = tested on: U-251
UO-31 = tested on: UO-31

Structure (SMILES)	GI50 (CAKI-1)	GI50 (CCRF-CEM)	GI50 (COLO 205)	GI50 (HCC 2998)	GI50 (HL-60)	GI50 (HOP-62)	GI50 (IGROV-1)	GI50 (LOX IMVI)	GI50 (M14)	GI50 (MDA-MB-231)	GI50 (MDA-MB-435)	GI50 (NCI-H522)	GI50 (OVCAR-3)	GI50 (OVCAR-4)	GI50 (OVCAR-8)	GI50 (SF-295)	GI50 (SW-620)	GI50 (T47D)	GI50 (U-251)	GI50 (UO-31)
O=c1[nH]c(=O)n(COCCO)cc1-c1ccccc1	> 100 µM (inactive)	> 100 µM (inactive)	> 100 µM (inactive)	> 100 µM (inactive)	> 100 µM (inactive)	> 100 µM (inactive)	> 100 µM (inactive)	> 100 µM (inactive)	> 100 µM (inactive)	> 100 µM (inactive)	> 100 µM (inactive)	> 100 µM (inactive)	> 100 µM (inactive)	> 100 µM (inactive)	> 100 µM (inactive)	> 100 µM (inactive)	> 100 µM (inactive)	> 100 µM (inactive)	> 100 µM (inactive)	> 100 µM (inactive)
CN(CCCNC(=O)c1cn(C)c2c1ccc1cc(Cl)ccc12)CCCNC(=O)c1cn(C)c2c1ccc1cc(Cl)ccc12	2.3 µM (inactive)	1.23 µM (inactive)	1.47 µM (inactive)	1.2 µM (inactive)	0.914 µM (active)	1.65 µM (inactive)	1.46 µM (inactive)	1.64 µM (inactive)	1.85 µM (inactive)	1.75 µM (inactive)	1.71 µM (inactive)	1.75 µM (inactive)	1.9 µM (inactive)	2.52 µM (inactive)	1.82 µM (inactive)	2 µM (inactive)	1.62 µM (inactive)	1.8 µM (inactive)	1.71 µM (inactive)	1.41 µM (inactive)
CC1(C)C(CBr)=[N+]([O-])C(C)(C)N1O	2.56 µM (inactive)	0.604 µM (active)	1.83 µM (inactive)	> 10 µM (inactive)	> 4.6 µM (inactive)	> 10 µM (inactive)	> 6.31 µM (inactive)	3.7 µM (inactive)	2.37 µM (inactive)	> 6.76 µM (inactive)	4.03 µM (inactive)	1.44 µM (inactive)	3.32 µM (inactive)	1.77 µM (inactive)	> 6.97 µM (inactive)	> 10 µM (inactive)	2.25 µM (inactive)	2.16 µM (inactive)	> 10 µM (inactive)	> 10 µM (inactive)
COC[C@H]1C(=O)NCC(=O)N2N=CCC[C@H]2C(=O)N(O)[C@H](C)C(=O)O[C@@H](C(C)C)[C@H](NC(=O)[C@@](C)(O)[C@]2(O)CC[C@@H](CC(C)C)[C@H](C)O2)C(=O)N2NCCC[C@@H]2C(=O)N1O	0.133 µM (active)	0.0216 µM (active)	0.0175 µM (active)	0.0169 µM (active)	0.0148 µM (active)	0.0175 µM (active)	0.0157 µM (active)	0.0178 µM (active)	0.0183 µM (active)	0.0191 µM (active)	0.0164 µM (active)	0.0178 µM (active)	0.0183 µM (active)	0.0168 µM (active)	0.0185 µM (active)	0.0193 µM (active)	0.0157 µM (active)	0.0228 µM (active)	0.0168 µM (active)	0.169 µM (active)
C[C@@H](CC(O)C(O)C(C)(C)O)C1CCC23CC12CCC1[C@@]2(C)CCC(=O)C(C)(C)C2CC(OC2OC(CO)C(O)C(O)C2O)[C@]13C (stereo not given in full)	> 10 µM (inactive)	> 10 µM (inactive)	> 10 µM (inactive)	> 10 µM (inactive)	> 10 µM (inactive)	> 10 µM (inactive)	> 10 µM (inactive)	> 10 µM (inactive)	> 10 µM (inactive)	> 10 µM (inactive)	> 10 µM (inactive)	> 10 µM (inactive)	> 10 µM (inactive)	> 10 µM (inactive)	> 10 µM (inactive)	> 10 µM (inactive)	> 10 µM (inactive)	> 10 µM (inactive)	> 10 µM (inactive)	> 10 µM (inactive)
CNC(=O)c1cc2nc3ccccc3c(=O)n2c2ccccc12	> 10 µM (inactive)	> 10 µM (inactive)	> 10 µM (inactive)	> 10 µM (inactive)	> 10 µM (inactive)	> 10 µM (inactive)	> 10 µM (inactive)	> 10 µM (inactive)	> 10 µM (inactive)	> 10 µM (inactive)	> 10 µM (inactive)	> 10 µM (inactive)	> 10 µM (inactive)	> 10 µM (inactive)	> 10 µM (inactive)	> 10 µM (inactive)	> 10 µM (inactive)	> 10 µM (inactive)	> 10 µM (inactive)	> 10 µM (inactive)
COC(=O)/C=C/CCC#Cc1ccccc1C#CCC/C=C/C(=O)OC	2.88 µM (inactive)	4.48 µM (inactive)	5.48 µM (inactive)	50.1 µM (inactive)	2.7 µM (inactive)	24.2 µM (inactive)	4.88 µM (inactive)	4.99 µM (inactive)	8.97 µM (inactive)	20.1 µM (inactive)	6 µM (inactive)	3.57 µM (inactive)	3.58 µM (inactive)	16.9 µM (inactive)	6.46 µM (inactive)	13.2 µM (inactive)	4.89 µM (inactive)	4.07 µM (inactive)	4.32 µM (inactive)	19.5 µM (inactive)
